Each compound was assayed against T1, GST-Xa-hAAK1 (Homo sapiens, UniProt Q2M2I8) (assay: AAK1 kinase assay). Settings: ATP 22 μM; given as IC50 range.
T1 construct: made in house
Assay type: biochemical
Description: The assays were performed in U-bottom 384-well plates. […] The reactions were initiated by the combination of bacterially expressed, GST-Xa-hAAK1 with substrates and test compounds. The reactions were incubated at room temperature for 3 hours and terminated by adding 60 μl of 35 mM EDTA buffer to each sample. The reactions were analyzed on the Caliper LabChip 3000 (Caliper, Hopkinton, Mass.) by electrophoretic separation of the fluorescent substrate and phosphorylated product. […] Compounds were dissolved at 10 mM in dimethylsulfoxide (DMSO) and evaluated at eleven concentrations. IC50 values were derived by non-linear regression analysis.

T1 sequence (Q2M2I8 whole entry): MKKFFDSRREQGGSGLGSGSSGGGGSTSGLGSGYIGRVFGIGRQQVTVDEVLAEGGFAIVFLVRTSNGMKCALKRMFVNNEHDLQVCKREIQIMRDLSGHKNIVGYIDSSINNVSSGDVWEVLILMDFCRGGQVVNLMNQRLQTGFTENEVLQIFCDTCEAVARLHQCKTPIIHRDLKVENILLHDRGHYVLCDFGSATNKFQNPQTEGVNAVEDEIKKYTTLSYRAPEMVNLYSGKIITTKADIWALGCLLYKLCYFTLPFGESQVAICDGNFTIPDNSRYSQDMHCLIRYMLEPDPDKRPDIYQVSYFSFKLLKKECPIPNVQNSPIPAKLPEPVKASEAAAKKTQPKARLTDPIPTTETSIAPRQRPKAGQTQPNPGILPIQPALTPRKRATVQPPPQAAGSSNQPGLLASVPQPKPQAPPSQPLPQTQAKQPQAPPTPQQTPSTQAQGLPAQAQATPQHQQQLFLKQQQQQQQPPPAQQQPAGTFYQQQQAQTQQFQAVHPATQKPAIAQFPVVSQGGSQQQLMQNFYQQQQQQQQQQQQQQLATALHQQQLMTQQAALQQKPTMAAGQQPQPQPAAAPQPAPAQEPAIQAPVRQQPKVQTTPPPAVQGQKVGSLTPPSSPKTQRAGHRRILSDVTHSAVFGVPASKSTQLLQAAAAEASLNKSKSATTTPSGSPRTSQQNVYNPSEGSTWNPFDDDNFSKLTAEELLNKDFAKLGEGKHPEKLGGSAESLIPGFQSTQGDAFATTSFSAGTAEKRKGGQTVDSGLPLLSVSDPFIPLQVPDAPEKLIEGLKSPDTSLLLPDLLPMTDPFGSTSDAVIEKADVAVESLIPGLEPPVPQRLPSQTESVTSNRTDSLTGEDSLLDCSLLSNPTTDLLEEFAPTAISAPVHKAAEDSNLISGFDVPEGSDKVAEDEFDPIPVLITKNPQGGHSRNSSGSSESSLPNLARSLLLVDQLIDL

IC50	SMILES
1 to 10 nM	Cc1nccc2c1c(=O)n(C)c1cc(OCC(N)CC(C)C(F)(F)F)ccc21 (single isomer, unassigned) [Example 87]
1 to 10 nM	Cc1nccc2c1c(=O)n(C)c1cc(OCC(N)CC(C)C(F)(F)F)ccc21 (single isomer, unassigned) [Example 88]
1 to 10 nM	Cc1cc2c3ccncc3c(=O)n(C)c2cc1OC[C@@H](N)CC(C)C [Example 4, (S)-8-((2-amino-4-methylpentyl)oxy)-6,9-dimethylbenzo[c][2,7]naphthyridin-5(6H)-one]
1 to 10 nM	CC(C)C[C@H](N)COc1cc2c(cc1C#N)c1ccncc1c(=O)n2C [Example 5, (S)-8-((2-amino-4-methylpentyl)oxy)-6-methyl-5-oxo-5,6 dihydrobenzo[c][2,7]naphthyridine-9-carbonitrile]
10 to 100 nM	CC(C)C[C@H](N)COc1c(Cl)cc2c3ccncc3c(=O)n(C)c2c1Cl [Example 10, (S)-8-((2-amino-4-methylpentyl)oxy)-7,9-dichloro-6-methylbenzo[c][2,7]naphthyridin-5(6H) one]
< 1 nM	Cc1nccc2c1c(=O)n(C)c1cc(OC[C@@H](N)CC(C)C)c(C(F)F)cc21 [Example 27, (S)-8-((2-amino-4-methylpentyl)oxy)-9-(difluoromethyl)-4,6-dimethylbenzo[c][2,7]naphthyridin-5(6H)-one]
10 to 100 nM	CC(C)C[C@@H](COc1ccc2c3ccncc3c(=O)n(C)c2c1)N(C)C [Example 39, (S)-8-((2-(dimethylamino)-4-methylpentyl)oxy)-6-methylbenzo[c][2,7]naphthyridin-5(6H)-one]
100 to 2000 nM	COc1nccc2c1c(=O)n(C)c1cc(OC[C@@H](N)CC(C)C)ccc21 [Example 42, (S)-8-(2-amino-4-methylpentyloxy)-4-methoxy-6-methylbenzo[c][2,7]naphthyridin-5(6H)-one]
1 to 10 nM	CC(C)C[C@H](N)COc1cc2c(cc1Cl)c1ccncc1c(=O)n2C [Example 43, (S)-8-((2-amino-4-methylpentyl)oxy)-9-chloro-6-methylbenzo[c][2,7]naphthyridin-5(6H)-one]
1 to 10 nM	Cc1nccc2c1c(=O)[nH]c1cc(OC[C@@H](N)CC(C)C)c(Br)cc12 [Example 49, (S)-8-(2-amino-4-methylpentyloxy)-9-bromo-4-methylbenzo[c][2,7]naphthyridin-5(6H)-one]
100 to 2000 nM	CC(C)C[C@H](N)COc1cc2c(cc1-c1ccc(F)cc1)c1ccncc1c(=O)n2C [Example 51, (S)-8-((2-amino-4-methylpentyl)oxy)-9-(4-fluorophenyl)-6 methylbenzo[c][2,7]naphthyridin-5(6H)-one]
< 1 nM	CN[C@H](COc1cc2c(cc1C#N)c1ccnc(C)c1c(=O)n2C)CC(C)C [Example 65, (S)-4,6-dimethyl-8-(4-methyl-2-(methylamino)pentyloxy)-5-oxo-5,6-dihydrobenzo[c][2,7]naphthyridine-9-carbonitrile]
1 to 10 nM	Cc1nccc2c1c(=O)[nH]c1cc(OC[C@@H](N)CC(C)C)ccc12 [Example 77, (S)-8-(2-amino-4-methylpentyloxy)-4-methylbenzo[c][2,7]naphthyridin-5(6H)-one]
1 to 10 nM	COCCn1c(=O)c2c(C)nccc2c2cc(Cl)c(OC[C@@H](N)CC(C)C)cc21 [Example 79, (S)-8-((2-amino-4-methylpentyl)oxy)-9-chloro-6-(2-methoxyethyl)-4-methylbenzo[c][2,7]naphthyridin-5(6H)-one]
100 to 2000 nM	Cc1nccc2c1c(=O)n(C)c1c(F)c(OC[C@@H](N)CC(C)C)ccc21 [Example 81, (S)-8-(2-amino-4-methylpentyloxy)-7-fluoro-4,6-dimethylbenzo[c][2,7]naphthyridin-5(6H)-one]
1 to 10 nM	COC(=O)c1cc2c3ccnc(C)c3c(=O)n(C)c2cc1OC[C@@H](N)CC(C)C [Example 84, (S)-methyl 8-((2-amino-4-methylpentyl)oxy)-4,6-dimethyl-5-oxo-5,6-dihydrobenzo[c][2,7]naphthyridine-9-carboxylate]
10 to 100 nM	CC(C)C[C@H](N)COc1ccc2c3c(F)cncc3c(=O)n(C)c2c1 [Example 85, (S)-8-((2-amino-4-methylpentyl)oxy)-1-fluoro-6-methylbenzo[c][2,7]naphthyridin-5(6H)-one]
10 to 100 nM	Cc1nccc2c1c(=O)n(C)c1cc(OC[C@@H](N)CC(C)C)c(C(N)=O)cc21 [Example 94, (S)-8-((2-amino-4-methylpentyl)oxy)-4,6-dimethyl-5-oxo-5,6-dihydrobenzo[c][2,7]naphthyridine-9-carboxamide]

IC50	SMILES
100 to 2000 nM	COc1cncc2c(=O)n(C)c3cc(OC[C@@H](N)CC(C)C)ccc3c12 [Example 98, (S)-8-((2-amino-4-methylpentyl)oxy)-1-methoxy-6-methylbenzo[c][2,7]naphthyridin-5(6H)-one]
100 to 2000 nM	COc1c(OC[C@@H](N)CC(C)C)ccc2c1[nH]c(=O)c1c(C)nccc12 [Example 99, (S)-8-(2-amino-4-methylpentyloxy)-7-methoxy-4-methylbenzo[c][2,7]naphthyridin-5(6H)-one]
10 to 100 nM	COCc1cc2c3ccnc(C)c3c(=O)n(C)c2cc1OC[C@@H](N)CC(C)C [Example 104, (S)-8-(2-amino-4-methylpentyloxy)-9-(methoxymethyl)-4,6-dimethylbenzo[c][2,7]naphthyridin-5(6H)-one]
1 to 10 nM	Cc1nccc2c1c(=O)n(C)c1c(F)c(OC[C@@H](N)CC(C)C)c(Cl)cc21 [Example 107, (S)-8-((2-amino-4-methylpentyl)oxy)-9-chloro-7-fluoro-4,6-dimethylbenzo[c][2,7]naphthyridin-5(6H)-one]
10 to 100 nM	CC(C)Cc1cc2c3ccncc3c(=O)n(C)c2cc1OC[C@@H](N)CC(C)C [Example 110, (S)-8-((2-amino-4-methylpentyl)oxy)-9-isobutyl-6-methylbenzo[c][2,7]naphthyridin-5(6H)-one]
1 to 10 nM	Cn1c(=O)c2cnccc2c2ccc(OCC(N)CCC(F)(F)F)cc21 (centres unmarked) [Example 111, 8-((2-amino-5,5,5-trifluoropentyl)oxy)-6-methylbenzo[c][2,7]naphthyridin-5(6H)-one]
1 to 10 nM	Cn1c(=O)c2cnccc2c2ccc(OCC(N)CCC(F)(F)F)cc21 (centres unmarked) [Example 112, 8-((2-amino-5,5,5-trifluoropentyl)oxy)-6-methylbenzo[c][2,7]naphthyridin-5(6H)-one]
10 to 100 nM	Cc1nccc2c1c(=O)n(C)c1cc(OCC(N)CCC(F)(F)F)ccc21 (centres unmarked) [Example 123, 8-((2-amino-5,5,5-trifluoropentyl)oxy)-4,6-dimethylbenzo[c][2,7]naphthyridin-5(6H)-one]
< 1 nM	Cc1nccc2c1c(=O)n(C)c1cc(OCC(N)CCC(F)(F)F)c(Cl)cc21 (centres unmarked) [Example 124, 8-((2-amino-5,5,5-trifluoropentyl)oxy)-9-chloro-4,6-dimethylbenzo[c][2,7]naphthyridin-5(6H)-one]
1 to 10 nM	Cc1nccc2c1c(=O)n(C)c1cc(OC[C@@H](N)CC(C)C)c(C3CC3)cc21 [Example 125, (S)-8-((2-amino-4-methylpentyl)oxy)-9-cyclopropyl-4,6-dimethylbenzo[c][2,7]naphthyridin-5(6H)-one]
< 1 nM	Cc1nccc2c1c(=O)n(C)c1cc(OCC(N)CCC(F)(F)F)c(Br)cc21 (centres unmarked) [Example 128, 8-((2-amino-5,5,5-trifluoropentyl)oxy)-9-bromo-4,6-dimethylbenzo[c][2,7]naphthyridin-5(6H)-one]
10 to 100 nM	Cc1nccc2c1c(=O)n(C)c1cc(OC[C@@H](N)CC(C)C)c(C(C)C)cc21 [Example 130, (S)-8-((2-amino-4-methylpentyl)oxy)-9-isopropyl-4,6-dimethylbenzo[c][2,7]naphthyridin-5(6H)-one]
10 to 100 nM	COCCn1c(=O)c2c(C)nccc2c2cc(Br)c(OC[C@@H](N)CC(C)C)cc21 [Example 131, (S)-8-((2-amino-4-methylpentyl)oxy)-9-bromo-6-(2-methoxyethyl)-4-methylbenzo[c][2,7]naphthyridin-5(6H)-one]
< 1 nM	Cc1nccc2c1c(=O)n(CCO)c1cc(OC[C@@H](N)CC(C)C)c(Cl)cc21 [Example 132, (S)-8-((2-amino-4-methylpentyl)oxy)-9-chloro-6-(2-hydroxyethyl)-4-methylbenzo[c][2,7]naphthyridin-5(6H)-one]
10 to 100 nM	Cc1nccc2c1c(=O)n(C)c1c(F)c(OC[C@@H](N)CC(C)C)c(Br)cc21 [Example 134, (S)-8-((2-amino-4-methylpentyl)oxy)-9-bromo-7-fluoro-4,6-dimethylbenzo[c][2,7]naphthyridin-5(6H)-one]
100 to 2000 nM	COc1ccc2c3ccnc(C)c3c(=O)n(C)c2c1 [Example 144, 8-methoxy-4,6-dimethylbenzo[c][2,7]naphthyridin-5(6H)-one]
100 to 2000 nM	CC(C)NCC(O)COc1ccc2c3ccncc3c(=O)n(C)c2c1 (centres unmarked) [Example 146, 8-(2-hydroxy-3-(isopropylamino)propoxy)-6-methylbenzo[c][2,7]naphthyridin-5(6H)-one]

SMILES	IC50
Cn1c(=O)c2cnccc2c2ccc(OCC(N)CC(F)(F)F)cc21 (single isomer, unassigned) [Example 135, 8-(2-amino-4,4,4-trifluorobutoxy)-6-methylbenzo[c][2,7]naphthyridin-5(6H)-one]	10 to 100 nM
Cn1c(=O)c2cnccc2c2ccc(OCC(N)CC(F)(F)F)cc21 (single isomer, unassigned) [Example 136, 8-(2-amino-4,4,4-trifluorobutoxy)-6-methylbenzo[c][2,7]naphthyridin-5(6H)-one]	1 to 10 nM
Cc1nccc2c1c(=O)n(C)c1cc(OCC(N)CC(F)(F)F)c(Br)cc21 (centres unmarked) [Example 137, 8-(2-amino-4,4,4-trifluorobutoxy)-9-bromo-4,6-dimethylbenzo[c][2,7]naphthyridin-5(6H)-one]	1 to 10 nM
